Patent US20090038025A1, “Selection system for maize transformation” (BASF Plant Science GmbH, priority 2005, published 2009)

Tested on: corn immature embryos
Test: Immature embryo germination inhibition bioassay (kill curves)
Format: cell-based, Zea mays
Conditions: immature embryos 2 mm on germination medium, 27° C. in light; shoot and primary root length 7 days after dissection
Experimental: In order to establish effective concentrations of D-Serine and D-Alanine on inhibiting growth of tissue cultured corn cells, a bioassay system using immature embryos was applied. Immature embryos 2 mm in length were dissected onto germination medium with the selection agents, and incubated at 27° C. in light. The lengths of the shoot and primary root of a germinated seedling were measured 7 days after embryo dissection (FIGS. 1A and 1B).

C[C@@H](N)C(=O)O [D-Alanine]
concentration above which significant/pronounced growth inhibition occurs: higher than 2 mM

N[C@H](CO)C(=O)O [D-Serine]
concentration above which significant/pronounced growth inhibition occurs: higher than 9 mM
